Experimental data: PubChem BioAssay AID1963982 (Molecular Pharmacology Branch, DTP, NCI, 2024)

Tested on: 313798-341-R-J2-PDC spheroids, viability
Experiment: Anticancer human tumor 313798-341-R-J2-PDC patient-derived cervical squamous cell carcinoma cell line growth inhibition [PI3K]
Conditions: spheroids with HUVEC and MSC; for IC50: curve of first compound; for viability, T/C: stronger effect = lower value
Procedure, shortened: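 Targeted small molecules plus PI3K inhibitors, half-log dose series from Cmax (default top 10 microM), were applied to heterotypic spheroids of cancer cells with HUVEC and MSCs. Viability indicated growth inhibition.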

[1] = second compound 0.0316 µM, first compound 0.0316 µM
[2] = second compound 0.0316 µM, first compound 0.1 µM
[3] = second compound 0.0316 µM, first compound 0.316 µM
[4] = second compound 0.0316 µM, first compound 1 µM
[5] = second compound 0.0316 µM, first compound 3.16 µM
[6] = second compound 0.0316 µM, first compound 10 µM
[7] = second compound 0.1 µM, first compound 0.0316 µM
[8] = second compound 0.1 µM, first compound 0.1 µM
[9] = second compound 0.1 µM, first compound 0.316 µM
[10] = second compound 0.1 µM, first compound 1 µM
[11] = second compound 0.1 µM, first compound 3.16 µM
[12] = second compound 0.1 µM, first compound 10 µM
[13] = second compound 0.316 µM, first compound 0.0316 µM
[14] = second compound 0.316 µM, first compound 0.1 µM
[15] = second compound 0.316 µM, first compound 0.316 µM
[16] = second compound 0.316 µM, first compound 1 µM
[17] = second compound 0.316 µM, first compound 3.16 µM
[18] = second compound 0.316 µM, first compound 10 µM
[19] = second compound 1 µM, first compound 0.0316 µM
[20] = second compound 1 µM, first compound 0.1 µM
[21] = second compound 1 µM, first compound 0.316 µM
[22] = second compound 1 µM, first compound 1 µM
[23] = second compound 1 µM, first compound 3.16 µM
[24] = second compound 1 µM, first compound 10 µM
[25] = second compound 3.16 µM, first compound 0.0316 µM
[26] = second compound 3.16 µM, first compound 0.1 µM
[27] = second compound 3.16 µM, first compound 0.316 µM
[28] = second compound 3.16 µM, first compound 1 µM
[29] = second compound 3.16 µM, first compound 3.16 µM
[30] = second compound 3.16 µM, first compound 10 µM
[31] = second compound 10 µM, first compound 0.0316 µM
[32] = second compound 10 µM, first compound 0.1 µM
[33] = second compound 10 µM, first compound 0.316 µM
[34] = second compound 10 µM, first compound 1 µM
[35] = second compound 10 µM, first compound 3.16 µM
[36] = second compound 10 µM, first compound 10 µM
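Also: spheroids exposed to compounds for seven days.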
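For viability, T/C in this document: 100% = DMSO vehicle control viability.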

Question: Which IC50 (second compound 0.00316 µM) does the source give for `CNC(=O)c1ccc(N2C(=S)N(c3ccc(C#N)c(C(F)(F)F)c3)C(=O)C2(C)C)cc1F` + CC(Nc1ccc2c(c1)OCCn1cc(N3C(=O)OCC3C(F)F)nc1-2)C(N)=O here?
Answer: > 10 µM

Question: What about the IC50 (second compound 0.01 µM) of the same molecule?
Answer: > 10 µM

Question: What about the IC50 (second compound 0.0316 µM) of the same molecule?
Answer: > 10 µM

Question: And the IC50 (second compound 0.1 µM)?
Answer: > 10 µM

Question: And the IC50 (second compound 0.316 µM)?
Answer: > 10 µM

Question: And the IC50 (second compound 1 µM)?
Answer: 3.72 µM

Question: And the viability, T/C (second compound 0.00316 µM, first compound 0.0316 µM)?
Answer: 99.8%

Question: What about the viability, T/C (second compound 0.00316 µM, first compound 0.1 µM) of the same molecule?
Answer: 87%

Question: What about the viability, T/C (second compound 0.00316 µM, first compound 0.316 µM) of the same molecule?
Answer: 89.7%

Question: And the viability, T/C (second compound 0.00316 µM, first compound 1 µM)?
Answer: 101%

Question: What about the viability, T/C (second compound 0.00316 µM, first compound 3.16 µM) of the same molecule?
Answer: 99.3%

Question: What about the viability, T/C (second compound 0.00316 µM, first compound 10 µM) of the same molecule?
Answer: 88.2%

Question: And the viability, T/C (second compound 0.01 µM, first compound 0.0316 µM)?
Answer: 103%

Question: What about the viability, T/C (second compound 0.01 µM, first compound 0.1 µM) of the same molecule?
Answer: 94.8%

Question: What about the viability, T/C (second compound 0.01 µM, first compound 0.316 µM) of the same molecule?
Answer: 97.6%

Question: And the viability, T/C (second compound 0.01 µM, first compound 1 µM)?
Answer: 91.3%

Question: And the viability, T/C (second compound 0.01 µM, first compound 3.16 µM)?
Answer: 101%

Question: And the viability, T/C (second compound 0.01 µM, first compound 10 µM)?
Answer: 90%

Question: What about the viability, T/C [1] of the same molecule?
Answer: 93.3%

Question: What about the viability, T/C [2] of the same molecule?
Answer: 101%

Question: And the viability, T/C [3]?
Answer: 102%

Question: And the viability, T/C [4]?
Answer: 92.8%

Question: What about the viability, T/C [5] of the same molecule?
Answer: 97.5%

Question: What about the viability, T/C [6] of the same molecule?
Answer: 90.1%

Question: And the viability, T/C [7]?
Answer: 97.7%

Question: What about the viability, T/C [8] of the same molecule?
Answer: 92%

Question: What about the viability, T/C [9] of the same molecule?
Answer: 91.9%

Question: And the viability, T/C [10]?
Answer: 91.7%

Question: And the viability, T/C [11]?
Answer: 87.5%

Question: What about the viability, T/C [12] of the same molecule?
Answer: 77.6%

Question: What about the viability, T/C [13] of the same molecule?
Answer: 82.7%

Question: What about the viability, T/C [14] of the same molecule?
Answer: 75.8%

Question: What about the viability, T/C [15] of the same molecule?
Answer: 79.7%

Question: And the viability, T/C [16]?
Answer: 70.2%

Question: What about the viability, T/C [17] of the same molecule?
Answer: 62.2%

Question: And the viability, T/C [18]?
Answer: 60.2%

Question: And the viability, T/C [19]?
Answer: 50.2%

Question: What about the viability, T/C [20] of the same molecule?
Answer: 59.6%

Question: And the viability, T/C [21]?
Answer: 53%

Question: What about the viability, T/C [22] of the same molecule?
Answer: 51.1%

Question: And the viability, T/C [23]?
Answer: 51.8%

Question: And the viability, T/C [24]?
Answer: 44.7%

Question: With `Cn1ncc(Cl)c1-c1cc(C(=O)NC(CN)Cc2cccc(F)c2)sc1Cl` (stereo unspecified) + CC(Nc1ncnc2nc[nH]c12)c1cc2cccc(Cl)c2c(=O)n1-c1ccccc1 as the molecule, how does the IC50 (second compound 0.0316 µM) read?
Answer: 0.777 µM

Question: And the IC50 (second compound 0.1 µM)?
Answer: 0.984 µM

Question: And the IC50 (second compound 0.316 µM)?
Answer: 1.1 µM

Question: And the IC50 (second compound 1 µM)?
Answer: 1.08 µM

Question: What about the IC50 (second compound 3.16 µM) of the same molecule?
Answer: 0.79 µM

Question: What about the IC50 (second compound 10 µM) of the same molecule?
Answer: 0.785 µM

Question: And the viability, T/C [1]?
Answer: 86.5%

Question: What about the viability, T/C [2] of the same molecule?
Answer: 82.8%

Question: And the viability, T/C [3]?
Answer: 73.1%

Question: What about the viability, T/C [4] of the same molecule?
Answer: 43.1%

Question: What about the viability, T/C [5] of the same molecule?
Answer: 34.9%

Question: And the viability, T/C [6]?
Answer: 30.9%

Question: What about the viability, T/C [7] of the same molecule?
Answer: 108%

Question: What about the viability, T/C [8] of the same molecule?
Answer: 89.5%

Question: What about the viability, T/C [9] of the same molecule?
Answer: 84.4%

Question: And the viability, T/C [10]?
Answer: 48.6%

Question: And the viability, T/C [11]?
Answer: 32.2%

Question: What about the viability, T/C [12] of the same molecule?
Answer: 34.8%

Question: And the viability, T/C [13]?
Answer: 97.5%

Question: What about the viability, T/C [14] of the same molecule?
Answer: 92.8%

Question: And the viability, T/C [15]?
Answer: 70.8%

Question: And the viability, T/C [16]?
Answer: 54.9%

Question: And the viability, T/C [17]?
Answer: 32.2%

Question: And the viability, T/C [18]?
Answer: 30.9%

Question: What about the viability, T/C [19] of the same molecule?
Answer: 101%

Question: What about the viability, T/C [20] of the same molecule?
Answer: 88.2%

Question: And the viability, T/C [21]?
Answer: 77.9%

Question: And the viability, T/C [22]?
Answer: 47.5%

Question: And the viability, T/C [23]?
Answer: 38.8%

Question: What about the viability, T/C [24] of the same molecule?
Answer: 29%

Question: What about the viability, T/C [25] of the same molecule?
Answer: 107%

Question: And the viability, T/C [26]?
Answer: 86.1%

Question: What about the viability, T/C [27] of the same molecule?
Answer: 62.4%

Question: And the viability, T/C [28]?
Answer: 49.3%

Question: And the viability, T/C [29]?
Answer: 32.5%

Question: What about the viability, T/C [30] of the same molecule?
Answer: 30.8%

Question: What about the viability, T/C [31] of the same molecule?
Answer: 87%

Question: What about the viability, T/C [32] of the same molecule?
Answer: 78.1%

Question: And the viability, T/C [33]?
Answer: 67.8%

Question: And the viability, T/C [34]?
Answer: 46.5%

Question: What about the viability, T/C [35] of the same molecule?
Answer: 27.7%

Question: And the viability, T/C [36]?
Answer: 25.8%

Question: With `C[C@@H](NC(=O)c1ncnc(N)c1Cl)c1ncc(C(=O)Nc2cc(C(F)(F)F)c(Cl)cn2)s1` + CC(Nc1ncnc2nc[nH]c12)c1cc2cccc(Cl)c2c(=O)n1-c1ccccc1 as the molecule, how does the IC50 (second compound 0.0316 µM) read?
Answer: > 10 µM

Question: What about the IC50 (second compound 0.1 µM) of the same molecule?
Answer: > 10 µM

Question: And the IC50 (second compound 0.316 µM)?
Answer: > 10 µM

Question: What about the IC50 (second compound 1 µM) of the same molecule?
Answer: > 10 µM

Question: And the IC50 (second compound 3.16 µM)?
Answer: > 10 µM

Question: And the IC50 (second compound 10 µM)?
Answer: > 10 µM

Question: What about the viability, T/C [1] of the same molecule?
Answer: 90.2%

Question: What about the viability, T/C [2] of the same molecule?
Answer: 104%

Question: What about the viability, T/C [3] of the same molecule?
Answer: 106%

Question: What about the viability, T/C [4] of the same molecule?
Answer: 112%

Question: What about the viability, T/C [5] of the same molecule?
Answer: 100%

Question: What about the viability, T/C [6] of the same molecule?
Answer: 101%

Question: And the viability, T/C [7]?
Answer: 98.3%

Question: What about the viability, T/C [8] of the same molecule?
Answer: 100%

Question: What about the viability, T/C [9] of the same molecule?
Answer: 98.3%

Question: What about the viability, T/C [10] of the same molecule?
Answer: 98.7%

Question: What about the viability, T/C [11] of the same molecule?
Answer: 110%

Question: What about the viability, T/C [12] of the same molecule?
Answer: 117%

Question: And the viability, T/C [13]?
Answer: 99.3%

Question: And the viability, T/C [14]?
Answer: 102%

Question: What about the viability, T/C [15] of the same molecule?
Answer: 101%

Question: What about the viability, T/C [16] of the same molecule?
Answer: 97.7%

Question: And the viability, T/C [17]?
Answer: 103%

Question: And the viability, T/C [18]?
Answer: 105%

Question: What about the viability, T/C [19] of the same molecule?
Answer: 98.5%

Question: What about the viability, T/C [20] of the same molecule?
Answer: 106%

Question: What about the viability, T/C [21] of the same molecule?
Answer: 90.9%

Question: What about the viability, T/C [22] of the same molecule?
Answer: 101%

Question: And the viability, T/C [23]?
Answer: 104%

Question: And the viability, T/C [24]?
Answer: 95.7%

Question: And the viability, T/C [25]?
Answer: 98%

Question: And the viability, T/C [26]?
Answer: 100%

Question: And the viability, T/C [27]?
Answer: 98.6%

Question: And the viability, T/C [28]?
Answer: 98.9%

Question: And the viability, T/C [29]?
Answer: 106%

Question: What about the viability, T/C [30] of the same molecule?
Answer: 96.1%

Question: And the viability, T/C [31]?
Answer: 94%

Question: What about the viability, T/C [32] of the same molecule?
Answer: 85.2%

Question: What about the viability, T/C [33] of the same molecule?
Answer: 82.8%

Question: What about the viability, T/C [34] of the same molecule?
Answer: 86.7%

Question: And the viability, T/C [35]?
Answer: 89.9%

Question: And the viability, T/C [36]?
Answer: 88.6%
